These results are taken from patent publication US20080176810A1, “Use of 3, 4', 5-Trihydroxy-Stilbene-3-Beta-D-glucoside in Prepartion of Medicines For Treating and/or Preventing Ischemic Heart Disease” (SHENZHEN NEPTUNUS PHARMACEUTICAL CO., LTD., priority 2004, published 2008).

The test system of experiment [1] is chronic myocardial ischemia. Nature of the experiment: Chronic myocardial ischemia in rats, intragastric administration. The conditions noted are these: TSG 20 mg/kg intragastric, 6 weeks. It is filed as in vivo, SD rats. The protocol: (1) Operation and Coronary artery ligation of Animal: 60 male SD rats, divided into two groups: 15 in sham operation group and 45 in operation group, were immobilized on their backs by anesthesia of urethane ip at the dose of 100 mg/kg. Electrocardiograph (ECG-6851C, made by Shanghai Photoelectrical & Electronic Medical Apparatus Co., Ltd.) was used to record II lead electrocardiogram. Tracheal intubation was performed and connected into an artificial respirator and thoracotomy was performed at the fourth intercostal space of left sternal border after the skin sterilization. With exposure of the heart, the ligation was conducted at 3-4 mm of the root of left anterior descending coronary artery. ECG was monitored during the whole process and the graph showing significant elevation and depression of ST segment as well as the elevated T-wave amplitude was viewed as the indexes for the success of coronary artery ligation. After the ligation, thorax was closed and the air was drawn out. Regular feeding was continued after the operation, and the intramuscular injection of Penicillin was performed to prevent infection in 1 week after the operation. Thoracotomy was performed in sham operation group without coronary artery ligation.
(2) Groups and administration: 5 weeks later, there were 11 rats survived in sham operation group, and 24 rats in operation group. […] Starting from the sixth week, drugs were administered 6 days per week, and continued for 6 weeks, but withdrawn on Sundays. The volume of the drug administered was 5 ml/kg.
(1) Evaluation of therapeutic effect: Therapeutic effect was evaluated at the 12th week after the operation. 30 min after the final administration, rats were immobilized on their backs and tracheal intubation was performed. Arteria Femoralis was separated or insertion of a catheter to record artery blood pressure. A cardiac catheter was inversely guided into left ventricular from right common carotid artery. Both catheters were connected with pressure sensor, and then the pressure signals were input into an electrophysiolograph Powerlab system 8s (ML785/8S, AD Instruments, made in Australia) after being amplified with carriers. Needle electrodes were subcutaneously inserted into four limbs to monitor the standard two lead ECG. A computer (chart4.12 software, ML785/8S, AD Instruments, made in Australia) was used to monitor and store data. Thirty min after the operation, heart rate (HR), blood pressure (BPm), left ventricular systolic pressure (LVSP), left ventricular diastolic pressure (LVDP), the maximal rate of left intraventricular pressure changes (+dp/dtmax), left ventricular end-diastolic pressure (LVEDP), ECG were observed. One hour later, animals were executed, and their left ventriculars were taken out. The left hearts were cut into slices of 5 mm in thickness, which were cleaned with normal saline and put into 0.025% nitroblue tetrazolium (N-BT, made by Swiss Fluka Chemistry Company) at 37° C. for staining. Normal myocardium was dyed into dark blue, and the myocardium in infarction area was not dyed, remaining still light-yellow. The infarction area was isolated from normal myocardium under an anatomic microscopy and the both weighed, separatively. The percentage (%) of the weight of infarct area to the weight of the whole was regarded as the index for measurement of the area of myocardial infarction.
Test results was expressed in x±s. […]

For experiment [2], the system named is ischemic reperfusion injury of myocardium. The experiment is described as follows: Ischemic reperfusion injury of myocardium in rats, iv. Format: in vivo, SD rats. The settings on record: for CK / LDH: serum. Here is the method:
Administration was performed by femoral intravenous injection.
(1) Method of operation and ligation of coronary artery: Male SD rats were anesthetized with pentobarbital sodium (45 mg/kg) and immobilized on their backs for records of II lead ECG with an electrocardiograph (ECG-6851C, manufactured by Shanghai Photoelectrical Medical Electronic Apparatus Co., Ltd.). Tracheas were intubated and connected to a breathing apparatus. Thoracotomy was performed at intercostal space on left chest for cutting down fourth/fifth rib and opening cardiac pericardium to expose the heart. A 0/3 suture line was passed underneath the left branch of anterior descending coronary artery. After 10 minutes of stabilization (those with abnormal ECG after stabilization were abandoned). With two thrums passing through a small piece of fine silicone tube, a ligature was made on another small piece of fine silicone tube for ischemic ligation (those with no changes in ST segment and T-wave were excluded). After 10 minutes of ligation, drugs were injected slowly through femoral veins. 40 minutes later, the lines for ligation were cut off to reperfuse the anterior descending branch for 30 minutes.
(2) Detection of lactate dehydrogenase (LDH) and creatine kinase (CK): After completion of reperfusion, blood was sampled from abdominal aorta to determine serum activity of LDH and CK with ultraviolet spectrometry.
(3) Measurement of the area of myocardial infarction: With same thickness, 5 slices of ventricular myocardium were cut off from the part under the line of coronary ligation and in parallel to atrioventricular furrow and put into staining solution of nitroblue tetrazolium (N-BT) for 15 min of shaking dyeing. Normal myocardium would be dyed to lasureous color, while the infarct part of myocardium would not be dyed and remain pale-yellow. Under a microscopy, the infarct part was separated and weighed, and the percentage (%) of the weight of infarct part to the weight of total myocardium was adopted as the index for area of myocardial infarction.
(4) Data and statistic treatment: Data in all groups were presented with x±s and analysis of variance was adopted to check their significance.

For the substance “3,4′,5-trihydroxy-stilbene-3-β-D-glucoside [TSG]”, in experiment [1], the “+dp/dt max” value is on record as 1389 ± 142^Δ Kpa/s, the BP is on record as 19.2 ± 1.8^Δ KPa, the HR was 354 ± 45^Δ p/min and the LVEDP is on record as 0.82 ± 0.19^Δ KPa. In experiment [1], the LVSP was 19.8 ± 2.1^Δ KPa. In experiment [2] (high dose 30.0 mg/kg iv), the Infarct area percentage stood at 23.71 ± 3.66 %, the CK is 559.4 ± 72.9 IU/L and the LDH came out at 744.0 ± 149.2 IU/L. In addition, in experiment [2] (low dose 7.5 mg/kg iv), the Infarct area percentage worked out at 27.57 ± 5.33 %, the CK stood at 710.7 ± 106.8 IU/L and the LDH is reported as 857.7 ± 124.0 IU/L. Besides, in experiment [2] (middle dose 15.0 mg/kg iv), the Infarct area percentage is 24.80 ± 3.32 %, the CK amounted to 630.6 ± 108.6 IU/L and the LDH turned out to be 809.4 ± 128.4 IU/L.
